Holding throughout (conditions): synthetic library passage 3, intravenous, relative to wild-type AAV9
Experiment [1] has as its system brain, spinal cord, and DRG of the NHPs. The experiment in a line: NGS fold enrichment of synthetic library (passage 3) in NHPs, first cross-species screen. The class given is in vivo, cynomolgus macaques (Macaca fascicularis). In short, it runs like this: (§1)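 Fold enrichment versus wild-type AAV9 was derived by NGS of RT-PCR-amplified RNA from nervous tissue, collected e.g. 28 days after IV dosing […]. The library (passage 3) was given to two NHPs aged 2-4 years and to 6-8-week BALB/c and C57Bl/6 mice (n=3 each).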

In experiment [2] the test system is brain. The experiment in a line: NGS fold enrichment of synthetic library (passage 3) in BALB/c mice, first cross-species screen. The class given is in vivo. A digest of the protocol: as §1
For experiment [3], the system named is brain. The experiment in a line: NGS fold enrichment of synthetic library (passage 3) in C57Bl/6 mice, first cross-species screen. Format: in vivo. In short, it runs like this: as §1
[4] abbreviates: RNA from spinal cord of NHPs, NGS.
[5] abbreviates: RNA from brain of BALB/c mice, NGS.
The mark [6] stands for this setting: RNA from brain of C57Bl/6 mice, NGS.

For the sequence GPNSYPVSGQKQQT, the “Fold enrichment over AAV9 in the brain of NHPs” value in experiment [1] (RNA from brain of NHPs, NGS) was 1.381 fold. Further, in experiment [1] (setting [4]), the “Fold enrichment over AAV9 in the spinal cord of NHPs” value is on record as 4.040 fold. Also, the “Fold enrichment over AAV9 in the brain of Mice (BALB/c)” value (“Fold enrichment over AAV9 … (BALB/c)” for short) with brain [2] (setting [5]) was determined as 0.834 fold. Also, in the experiment on brain [3] (setting [6]), the “Fold enrichment over AAV9 in the brain of Mice (C57Bl/6)” value (shortened to “Fold enrichment over AAV9 … (C57Bl/6)”) is listed as 0.736 fold.
Consider GSGYTSLFLQNQQT, for which the “Fold enrichment over AAV9 in the brain of NHPs” value in experiment [1] (RNA NGS, brain of NHPs) was 2.710 fold. In addition, the “Fold enrichment over AAV9 in the spinal cord of NHPs” value in experiment [1] (RNA NGS, spinal cord of NHPs) was 0.010 fold. Also, the “Fold enrichment over AAV9 … (BALB/c)” value in the experiment with brain [2] (RNA NGS, brain of BALB/c mice) turned out to be 1.044 fold. Also, the “Fold enrichment over AAV9 … (C57Bl/6)” value in the experiment with brain [3] (RNA NGS, brain of C57Bl/6 mice) is listed as 0.490 fold.
The corresponding values for GSGQNQQTKVGHSA are 1.079 fold, 1.256 fold, 1.019 fold and 0.669 fold.
The like results for GSVTHGISGQNQQT were, in that order, 2.105 fold, 4.542 fold, 0.789 fold and 1.135 fold.
The corresponding values for GSGHIYVGIQNQQT are 2.178 fold, 6.428 fold, 0.337 fold and 0.989 fold.
Regarding GSGVSARMVQNQQT, in experiment [1] (RNA from brain of NHPs, NGS), the “Fold enrichment over AAV9 in the brain of NHPs” value stood at 1.299 fold. The “Fold enrichment over AAV9 in the spinal cord of NHPs” value in experiment [1] (setting [4]) came out at 0.624 fold. The “Fold enrichment over AAV9 … (BALB/c)” value in the experiment on brain [2] (setting [5]) is listed as 0.697 fold. The “Fold enrichment over AAV9 … (C57Bl/6)” value in the experiment with brain [3] (setting [6]) is 0.870 fold.
Consider GSGQSFQMHTNQQT, for which the “Fold enrichment over AAV9 in the brain of NHPs” value in experiment [1] (RNA NGS, brain of NHPs) amounted to 1.504 fold. Also, in experiment [1] (RNA NGS, spinal cord of NHPs), the “Fold enrichment over AAV9 in the spinal cord of NHPs” value is 9.770 fold. In addition, in the experiment on brain [2] (RNA NGS, brain of BALB/c mice), the “Fold enrichment over AAV9 … (BALB/c)” value turned out to be 0.325 fold. Further, the “Fold enrichment over AAV9 … (C57Bl/6)” value in the experiment on brain [3] (RNA NGS, brain of C57Bl/6 mice) is 0.503 fold.
The like results for GSGQNHRPSVLQQT were, in that order, 1.983 fold, 5.582 fold, 0.582 fold and 0.433 fold.
The like results for GRHLVTASGQNQQT were, in that order, 1.411 fold, 2.885 fold, 0.404 fold and 0.648 fold.
The corresponding values for GSGDLRISPQNQQT are 2.012 fold, 16.207 fold, 0.237 fold and 0.620 fold.
For GSGQNQQTSGVLTL, the “Fold enrichment over AAV9 in the brain of NHPs” value in experiment [1] (RNA NGS, brain of NHPs) is reported as 1.553 fold. Further, the “Fold enrichment over AAV9 in the spinal cord of NHPs” value in experiment [1] (RNA NGS, spinal cord of NHPs) amounted to 0.000 fold. Further, the “Fold enrichment over AAV9 … (BALB/c)” value with brain [2] (RNA NGS, brain of BALB/c mice) turned out to be 0.782 fold. The “Fold enrichment over AAV9 … (C57Bl/6)” value with brain [3] (RNA NGS, brain of C57Bl/6 mice) stood at 1.104 fold.
The like results for GAGSIIPSGQNQQT were, in that order, 2.129 fold, 7.164 fold, 0.249 fold and 0.595 fold.
The corresponding values for GSGQNQSQNHLQQT are 1.825 fold, 0.600 fold, 0.772 fold and 1.063 fold.
Regarding GSNGFTALGQNQQT, in experiment [1] (RNA NGS, brain of NHPs), the “Fold enrichment over AAV9 in the brain of NHPs” value is listed as 3.361 fold. In experiment [1] (RNA NGS, spinal cord of NHPs), the “Fold enrichment over AAV9 in the spinal cord of NHPs” value turned out to be 2.663 fold. In addition, the “Fold enrichment over AAV9 … (BALB/c)” value in the experiment with brain [2] (RNA NGS, brain of BALB/c mice) was 0.332 fold. Moreover, the “Fold enrichment over AAV9 … (C57Bl/6)” value in the experiment on brain [3] (RNA NGS, brain of C57Bl/6 mice) was found to be 0.830 fold.
The like results for GSGQNQQMAGAFRT were, in that order, 1.003 fold, 1.784 fold, 0.762 fold and 1.307 fold.
The corresponding values for GSGQNQQASLPSRT are 1.456 fold, 0.389 fold, 0.673 fold and 0.930 fold.
The like results for GSGQGPQERGNQQT were, in that order, 1.702 fold, 1.269 fold, 0.313 fold and 0.846 fold.
Regarding GNSMERTSGQNQQT, the “Fold enrichment over AAV9 in the brain of NHPs” value in experiment [1] (RNA NGS, brain of NHPs) amounted to 2.221 fold. In addition, in experiment [1] (RNA NGS, spinal cord of NHPs), the “Fold enrichment over AAV9 in the spinal cord of NHPs” value was found to be 4.177 fold. The “Fold enrichment over AAV9 … (BALB/c)” value in the experiment with brain [2] (RNA NGS, brain of BALB/c mice) is 0.935 fold. For the same sequence, the “Fold enrichment over AAV9 … (C57Bl/6)” value in the experiment with brain [3] (RNA NGS, brain of C57Bl/6 mice) came to 1.047 fold.
The like results for GSGQDRNIVQNQQT were, in that order, 2.112 fold, 0.229 fold, 0.632 fold and 0.454 fold.
The like results for GSGQYANHGINQQT were, in that order, 1.820 fold, 5.717 fold, 0.701 fold and 0.906 fold.
Consider GSGQVYISTPNQQT, for which, in experiment [1] (RNA from brain of NHPs, NGS), the “Fold enrichment over AAV9 in the brain of NHPs” value is on record as 1.367 fold. Further, in experiment [1] (setting [4]), the “Fold enrichment over AAV9 in the spinal cord of NHPs” value is 0.000 fold. Moreover, the “Fold enrichment over AAV9 … (BALB/c)” value in the experiment on brain [2] (setting [5]) was determined as 0.282 fold. Moreover, the “Fold enrichment over AAV9 … (C57Bl/6)” value in the experiment on brain [3] (setting [6]) was determined as 0.859 fold.
With GNGFSSASGQNQQT, the “Fold enrichment over AAV9 in the brain of NHPs” value in experiment [1] (RNA NGS, brain of NHPs) turned out to be 2.493 fold. For the same sequence, the “Fold enrichment over AAV9 in the spinal cord of NHPs” value in experiment [1] (RNA NGS, spinal cord of NHPs) is on record as 0.772 fold. The “Fold enrichment over AAV9 … (BALB/c)” value with brain [2] (RNA NGS, brain of BALB/c mice) worked out at 0.182 fold. The “Fold enrichment over AAV9 … (C57Bl/6)” value in the experiment with brain [3] (RNA NGS, brain of C57Bl/6 mice) was 0.240 fold.
The corresponding values for GSGQSMTLHLNQQT are 1.827 fold, 0.991 fold, 0.248 fold and 0.721 fold.
The corresponding values for GSGQNQQSMGTFTT are 1.625 fold, 0.000 fold, 0.399 fold and 1.792 fold.
The like results for GSLKPTTLGQNQQT were, in that order, 1.840 fold, 0.476 fold, 0.220 fold and 0.175 fold.
GSGQIRHSDQNQQT: the “Fold enrichment over AAV9 in the brain of NHPs” value in experiment [1] (RNA NGS, brain of NHPs) came to 2.600 fold. Also, in experiment [1] (RNA NGS, spinal cord of NHPs), the “Fold enrichment over AAV9 in the spinal cord of NHPs” value is 12.884 fold. Moreover, in the experiment with brain [2] (RNA NGS, brain of BALB/c mice), the “Fold enrichment over AAV9 … (BALB/c)” value is reported as 0.320 fold. Also, the “Fold enrichment over AAV9 … (C57Bl/6)” value with brain [3] (RNA NGS, brain of C57Bl/6 mice) was found to be 1.170 fold.
GRGQNVSSVHRQQT: in experiment [1] (RNA NGS, brain of NHPs), the “Fold enrichment over AAV9 in the brain of NHPs” value came out at 5.404 fold. The “Fold enrichment over AAV9 in the spinal cord of NHPs” value in experiment [1] (RNA NGS, spinal cord of NHPs) worked out at 0.000 fold. The “Fold enrichment over AAV9 … (BALB/c)” value with brain [2] (RNA NGS, brain of BALB/c mice) is on record as 0.691 fold. In addition, the “Fold enrichment over AAV9 … (C57Bl/6)” value with brain [3] (RNA NGS, brain of C57Bl/6 mice) is reported as 1.206 fold.
The corresponding values for GSGQNQQTVMTARA are 1.117 fold, 1.535 fold, 0.843 fold and 0.995 fold.
The corresponding values for GSVSDVRAGQNQQT are 2.661 fold, 1.647 fold, 0.747 fold and 0.267 fold.
The corresponding values for GILLATPSGQNQQT are 1.931 fold, 8.205 fold, 0.288 fold and 1.341 fold.
For GSGQNQQPSLRQST, the “Fold enrichment over AAV9 in the brain of NHPs” value in experiment [1] (RNA from brain of NHPs, NGS) was 1.356 fold. Besides, the “Fold enrichment over AAV9 in the spinal cord of NHPs” value in experiment [1] (setting [4]) was determined as 2.905 fold. Besides, in the experiment on brain [2] (setting [5]), the “Fold enrichment over AAV9 … (BALB/c)” value came to 0.554 fold. Moreover, the “Fold enrichment over AAV9 … (C57Bl/6)” value with brain [3] (setting [6]) is 1.315 fold.
For the sequence GVAFIGSSGQNQQT, the “Fold enrichment over AAV9 in the brain of NHPs” value in experiment [1] (RNA NGS, brain of NHPs) came out at 1.043 fold. The “Fold enrichment over AAV9 in the spinal cord of NHPs” value in experiment [1] (RNA NGS, spinal cord of NHPs) is listed as 0.000 fold. Further, the “Fold enrichment over AAV9 … (BALB/c)” value in the experiment on brain [2] (RNA NGS, brain of BALB/c mice) amounted to 0.648 fold. In addition, in the experiment with brain [3] (RNA NGS, brain of C57Bl/6 mice), the “Fold enrichment over AAV9 … (C57Bl/6)” value is 0.744 fold.

The record behind these values is patent US20260250318A1, “COMPOSITIONS AND METHODS FOR CROSSING THE BLOOD BRAIN BARRIER” (VOYAGER THERAPEUTICS, INC., priority 2022, published 2026).
